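How tested: cells in 96-well plates exposed to compound for 48 hours at five concentrations. Abbreviation: GI50, concentration required for 50% inhibition of growth.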 Active and inactive are the calls of the source. Cut-off read from the data, not from the text of the source: active = GI50 up to about 1.1 µM and inactive = higher.
Columns and labels:
Test in all cases: NCI anticancer screen, dose series, 48 h
[1] = test system: HOP-62
[2] = test system: SF-268
[3] = test system: HOP-92
[4] = test system: K562
[5] = test system: UACC-62
[6] = test system: MDA-N
[7] = test system: DU-145
[8] = test system: SNB-19
[9] = test system: SNB-75
[10] = test system: Malme-3M
[11] = test system: OVCAR-5
[12] = test system: A498
[13] = test system: NCI-H23
[14] = test system: PC-3
[15] = test system: HCT-116
[16] = test system: ACHN
[17] = test system: SR
[18] = test system: CCRF-CEM

Measured: GI50

Nn1c(CCCCCCCCc2nnc(COc3ccccc3)n2N)nnc1COc1ccccc1
inactive: [1] > 100 µM | [2] > 100 µM | [3] > 100 µM | [4] > 100 µM | [5] > 100 µM | [6] > 100 µM | [7] > 100 µM | [8] > 100 µM | [9] 88.1 µM | [10] > 100 µM | [11] > 100 µM | [12] > 100 µM | [13] > 100 µM | [14] > 100 µM | [15] > 100 µM | [16] > 100 µM

C/C(=N\NC(=O)Nc1ccccc1Cl)c1ccc(O)cc1
inactive: [2] > 100 µM | [3] > 100 µM | [4] 8.02 µM | [17] 4.34 µM | [5] > 100 µM | [6] > 100 µM | [7] > 100 µM | [8] > 100 µM | [9] 34.1 µM | [10] > 100 µM | [11] > 100 µM | [13] > 100 µM | [14] > 100 µM | [15] 48.6 µM | [18] > 100 µM | [16] > 100 µM

C/C(=N/NC(=S)NCCc1ccccn1)c1cnccn1
inactive: [1] 31.2 µM | [2] 38.5 µM | [3] 49.3 µM | [17] 2.44 µM | [5] 18.3 µM | [6] 53 µM | [7] 17.8 µM | [8] 54.7 µM | [9] > 100 µM | [10] 6.37 µM | [11] 79.3 µM | [13] 38.6 µM | [14] 48.8 µM | [15] 23.2 µM | [18] 2.64 µM | [16] 20.7 µM

CN(C)CCCNC(=O)c1cc(NC(=O)c2cc(NC(=O)c3cc(NC(=O)CCCn4ccc(CO)c4CO)cn3C)cn2C)cn1C
inactive: [2] 3.83 µM | [3] 13 µM | [4] 3.78 µM | [17] 6.5 µM | [5] 3.48 µM | [6] 16.5 µM | [7] 3.94 µM | [8] 2.9 µM | [9] 5.01 µM | [10] 14.5 µM | [11] 3.99 µM | [13] 13.8 µM | [14] 12.2 µM | [15] 3.86 µM | [18] 3.73 µM | [16] 15.8 µM

Fc1nc(Sc2ncnc3nc[nH]c23)nc(-c2c3ccccc3c3sc4ccccc4n23)n1
inactive: [1] > 100 µM | [2] 36.3 µM | [3] > 100 µM | [4] > 100 µM | [5] > 100 µM | [6] > 100 µM | [7] > 100 µM | [8] > 100 µM | [9] > 100 µM | [10] > 100 µM | [11] > 100 µM | [12] > 100 µM | [13] > 100 µM | [14] > 100 µM | [15] > 100 µM | [18] 40.7 µM | [16] > 100 µM

CC1(C)CN(c2ccccc2)C(=O)C1OC(=O)[C@@]1(C)C[C@@H]2C=C[C@H]1C2 (some centres not stated)
inactive: [1] 22.4 µM | [2] 27.5 µM | [3] 27.9 µM | [4] 6.15 µM | [5] 18 µM | [6] 18.7 µM | [7] 87.5 µM | [8] 28.8 µM | [9] 34.3 µM | [10] 10.9 µM | [11] 28.1 µM | [12] 23.8 µM | [13] 25.2 µM | [14] 30 µM | [15] 19.5 µM | [18] 23.3 µM | [16] 34.5 µM

O=C1NC(=O)[C@H]2C3C=CC([C@@H]12)[C@@H]1C(=O)NC(=O)[C@H]31
inactive: [1] > 100 µM | [2] > 100 µM | [3] > 100 µM | [4] > 100 µM | [17] > 100 µM | [5] > 100 µM | [6] > 100 µM | [7] > 100 µM | [8] > 100 µM | [10] > 100 µM | [11] > 100 µM | [13] > 100 µM | [14] > 100 µM | [15] > 100 µM | [18] > 100 µM | [16] > 100 µM

CC(=O)OC12c3ccccc3-c3ccccc3C1C(C(=O)O)C2C(=O)O (configuration not stated)
inactive: [1] > 10 µM | [2] > 10 µM | [3] > 10 µM | [4] > 10 µM | [17] > 10 µM | [7] > 10 µM | [8] > 10 µM | [10] 1.2 µM | [11] > 10 µM | [12] > 10 µM | [13] > 10 µM | [14] > 10 µM | [18] > 10 µM | [16] > 10 µM

Oc1cc(-c2ccc3ccccc3c2)nc2ncc(Cl)cc12
inactive: [1] 8.59 µM | [2] 4.74 µM | [3] 5.31 µM | [4] 3.23 µM | [5] 3.66 µM | [7] 11.4 µM | [8] 9.31 µM | [9] 1.98 µM | [10] 4.05 µM | [11] 64.9 µM | [12] 12.1 µM | [13] 7.14 µM | [18] 3.48 µM | [16] 4.9 µM

Reference: ChEMBL document CHEMBL1201862, “PubChem BioAssay data set” (2004)
